From the NIST ThermoML archive (doi:10.1016/j.jct.2010.07.002)

Assay: xn = mol fraction of the nth substance listed
Conditions: 101.3 kPa, Liquid, Vibrating tube method

[2H]O[2H] [water-d2] + C[N+](=O)[O-]
mass density [kg/m3]
Conditions	278.15 K	288.15 K	298.15 K	308.15 K	318.15 K
x1 = 0.001672	1158.21	1144.71	1131.14	1117.49	1103.75
x1 = 0.002547	1158.18	1144.68	1131.11	1117.46	1103.73
x1 = 0.004545	1158.14	1144.64	1131.07	1117.42	1103.67
x1 = 0.00623	1158.09	1144.59	1131.02	1117.37	1103.63
x1 = 0.008336	1158.04	1144.54	1130.97	1117.32	1103.58
x1 = 0.009484	1158.01	1144.51	1130.94	1117.3	1103.56
x1 = 0.01177	1157.96	1144.46	1130.89	1117.24	1103.5
x1 = 0.01408	1157.9	1144.4	1130.83	1117.19	1103.45
x1 = 0.01703	1157.83	1144.34	1130.77	1117.12	1103.38
x1 = 0.02007	1157.77	1144.27	1130.7	1117.06	1103.32
x1 = 0.02274	1157.71	1144.21	1130.64	1117	1103.26
x1 = 0.02464	1157.67	1144.17	1130.6	1116.97	1103.22
x1 = 0.02688	1157.62	1144.12	1130.55	1116.92	1103.17
